Reference: patent US20250051347A1, “BIFUNCTIONAL CHIMERIC HETEROCYCLIC COMPOUND AND USE THEREOF AS ANDROGEN RECEPTOR DEGRADER” (Hinova Pharmaceuticals, Inc., priority 2021, published 2025)
Like-named read-outs stand apart in the source and are kept apart here.

Key:
[1] = target: T1, androgen receptor (AR) splicing variant AR-v7 (Homo sapiens, UniProt P10275); assay: Degradation activity on androgen receptor splicing variant AR-v7 in 22RV1 cells (ELISA); assay type: cell-based; settings: AR-v7 degradation in 22RV1 cells, 48 h, class symbols
T1 construct: The degradation activity of compounds on AR-v7 in 22RV1 cells; host or cells: 22RV1 cells
T1 sequence (P10275 1-644 isoform P10275-3): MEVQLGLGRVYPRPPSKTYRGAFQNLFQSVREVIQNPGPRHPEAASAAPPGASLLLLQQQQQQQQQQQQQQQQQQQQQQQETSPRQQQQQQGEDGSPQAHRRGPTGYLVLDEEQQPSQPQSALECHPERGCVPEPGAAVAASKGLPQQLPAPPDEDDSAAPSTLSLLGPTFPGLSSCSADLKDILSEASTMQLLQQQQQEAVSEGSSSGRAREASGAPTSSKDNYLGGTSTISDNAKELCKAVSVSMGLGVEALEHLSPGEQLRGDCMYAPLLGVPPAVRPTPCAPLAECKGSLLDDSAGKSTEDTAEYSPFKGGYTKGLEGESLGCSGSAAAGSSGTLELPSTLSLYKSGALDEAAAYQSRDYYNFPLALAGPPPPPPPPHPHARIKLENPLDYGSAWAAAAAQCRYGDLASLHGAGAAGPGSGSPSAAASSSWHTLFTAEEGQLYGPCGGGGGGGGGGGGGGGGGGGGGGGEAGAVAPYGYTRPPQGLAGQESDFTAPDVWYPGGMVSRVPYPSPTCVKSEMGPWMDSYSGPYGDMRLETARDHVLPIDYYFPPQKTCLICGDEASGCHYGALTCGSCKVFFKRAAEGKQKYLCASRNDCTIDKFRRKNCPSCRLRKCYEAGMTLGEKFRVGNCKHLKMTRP

[2] = Homo sapiens, 22Rv1, 144 h, read-out: 22RV1 IC50 (nM), 22RV1 cells, 6 days culture, CCK-8, OD 450 nm
[3] = Homo sapiens, 22Rv1, 144 h, read-out: 22RV1 IC50 (nM)
[4] = read-out: 22RV1 IC50, 22RV1 cells, 6 days culture, CCK-8, OD 450 nm

| SMILES | DC50 [1] | IC50 (22RV1 cells; [2]) | IC50 (22RV1 cells; [4]) | IC50 (22RV1 cells; [3]) |
| --- | --- | --- | --- | --- |
| CC(=O)c1ncc(Oc2ccc(C3(c4ccc(O[C@H]5C[C@H](Nc6ccc7c(c6)C(=O)N(C6CCC(=O)NC6=O)C7=O)C5)cc4)CC3)cc2)cn1 (some centres unmarked) [Example 378, 5-(((1r,3r)-3-(4-(1-(4-((2-acetylpyrimidin-5-yl)oxy)phenyl)cyclopropyl)phenoxy)cyclobutyl)amino)-2-(2,6-dioxopiperidin-3-yl)isoindolin-1,3-dione] | 11 to 100 nM | 7 nM |  |  |
| Cc1nnc(-c2ncc(Oc3ccc(C4(c5ccc(O[C@H]6C[C@H](Nc7ccc8c(c7)C(=O)N(C7CCC(=O)NC7=O)C8=O)C6)cc5)CC4)cc3)cn2)o1 (some centres unmarked) [Example 379, 2-(2,6-dioxopiperidin-3-yl)-5-(((1r,3r)-3-(4-(1-(4-((2-(5-methyl-1,3,4-oxadiazol-2-yl)pyrimidin-5-yl)oxy)phenyl)cyclopropyl)phenoxy)cyclobutyl)amino)isoindolin-1,3-dione] | 11 to 100 nM | 17 nM |  |  |
| CC(C)(c1ccc(OCCCNc2ccc3c(c2)C(=O)N(C2CCC(=O)NC2=O)C3=O)cc1)c1ccc(OCc2ccnc(N3CCC3)n2)cc1 (centres unmarked) [Example 383] | 11 to 100 nM |  |  | 34 nM |
| CC(C)(c1ccc(OCCCNc2ccc3c(c2)C(=O)N(C2CCC(=O)NC2=O)C3=O)cc1)c1ccc(OCc2ccnc(-n3cncn3)n2)cc1 (centres unmarked) [Example 389, 5-((3-(4-(2-(4-((2-(1H-1,2,4-triazol-1-yl)pyrimidin-4-yl)methoxy)phenyl)propan-2-yl)phenoxy)propyl)amino)-2-(2,6-dioxopiperidin-3-yl)isoindol-1,3-dione] | 11 to 100 nM | 54 nM |  |  |
| CNc1nccc(COc2ccc(C(C)(C)c3ccc(OCCCNc4ccc5c(c4)C(=O)N(C4CCC(=O)NC4=O)C5=O)cc3)cc2)n1 (centres unmarked) [Example 390] | 11 to 100 nM | 26 nM |  |  |
| CC(C)(c1ccc(OCCCNc2ccc3c(c2)C(=O)N(C2CCC(=O)NC2=O)C3=O)cc1)c1ccc(OCc2ccnc(-n3ccnc3)n2)cc1 (centres unmarked) [Example 391, 5-((3-(4-(2-(4-((2-(1H-imidazol-1-yl)pyrimidin-4-yl)methoxy)phenyl)propan-2-yl)phenoxy)propyl)amino)-2-(2,6-dioxopiperidin-3-yl)isoindol-1,3-dione] | 11 to 100 nM | 56 nM |  |  |
| CNc1nccc(COc2ccc(C(C)(C)c3ccc(OC4CC(Nc5ccc6c(c5)C(=O)N(C5CCC(=O)NC5=O)C6=O)C4)cc3)cc2)n1 (centres unmarked) [Example 392] | 11 to 100 nM | 21 nM |  |  |
| CN1CCN(c2nccc(COc3ccc(C(C)(C)c4ccc(OC5CC(Nc6ccc7c(c6)C(=O)N(C6CCC(=O)NC6=O)C7=O)C5)cc4)cc3)n2)CC1 (centres unmarked) [Example 393] | 11 to 100 nM | 10 nM |  |  |
| CC(C)(c1ccc(OCc2ccnc(N3CC(N4CCC4)C3)n2)cc1)c1ccc(O[C@H]2C[C@H](Nc3ccc4c(c3)C(=O)N(C3CCC(=O)NC3=O)C4=O)C2)cc1 (some centres unmarked) [Example 414] | < 10 nM | 6 nM |  |  |
| Cn1cc(-c2cccc(COc3ccc(C(C)(C)c4ccc(O[C@H]5C[C@H](Nc6ccc7c(c6)C(=O)N(C6CCC(=O)NC6=O)C7=O)C5)cc4)cc3)n2)cn1 (some centres unmarked) [Example 416] | < 10 nM | 22 nM |  |  |
| CC(C)(c1ccc(OCc2cccc(-n3nccn3)n2)cc1)c1ccc(O[C@H]2C[C@H](Nc3ccc4c(c3)C(=O)N(C3CCC(=O)NC3=O)C4=O)C2)cc1 (some centres unmarked) [Example 419] | < 10 nM | 8 nM |  |  |
| CC(C)(c1ccc(OCc2ccnc(N3CC(N4CC(F)C4)C3)n2)cc1)c1ccc(O[C@H]2C[C@H](Nc3ccc4c(c3)C(=O)N(C3CCC(=O)NC3=O)C4=O)C2)cc1 (some centres unmarked) [Example 420] | < 10 nM | 5 nM |  |  |
| Cc1nc(-c2cccc(Oc3ccc(C(C)(C)c4ccc(O[C@H]5C[C@H](Nc6ccc7c(c6)C(=O)N(C6CCC(=O)NC6=O)C7=O)C5)cc4)cc3)n2)no1 (some centres unmarked) [Example 421] | < 10 nM |  |  | 3 nM |
| CN1CCN(c2ccc(Oc3ccc(C(C)(C)c4ccc(O[C@H]5C[C@H](Nc6ccc7c(c6)C(=O)N(C6CCC(=O)NC6=O)C7=O)C5)cc4)cc3)nn2)CC1 (some centres unmarked) [Example 425] | < 10 nM | 16 nM |  |  |
| CCC(=O)c1ncc(Oc2ccc(C(C)(C)c3ccc(O[C@H]4C[C@H](Nc5ccc6c(c5)C(=O)N(C5CCC(=O)NC5=O)C6=O)C4)cc3)cc2)cn1 (some centres unmarked) [Example 427] | < 10 nM | 6 nM |  |  |

Now from value to molecule, other results behind:

| DC50 [1] | IC50 (22RV1 cells; [2]) | IC50 (22RV1 cells; [4]) | SMILES | IC50 (22RV1 cells; [3]) |
| --- | --- | --- | --- | --- |
| < 10 nM | 3 nM |  | CC(C)(c1ccc(OCc2ccnc(N3CC4(COC4)C3)n2)c(F)c1)c1ccc(O[C@H]2C[C@@H](Nc3ccc4c(c3)C(=O)N(C3CCC(=O)NC3=O)C4=O)C2)c(F)c1 (some centres unmarked) [Example 366, 5-(((1s,3s)-3-(4-(2-(4-((2-(2-oxa-6-azaspiro[3.3]heptane-6-yl)pyrimidin-4-yl)methoxy)-3-fluorophenyl)isopropan-2-yl)-2-fluorophenoxy)cyclobutyl)amino)-2-(2,6-dioxopiperidin-3-yl)isoindolin-1,3-dione] |  |
| < 10 nM | 6 nM |  | CC(C)(c1ccc(OCc2ccnc(OC3COC3)n2)cc1)c1ccc(O[C@H]2C[C@H](Nc3ccc4c(c3)C(=O)N(C3CCC(=O)NC3=O)C4=O)C2)cc1 (some centres unmarked) [Example 369, 2-(2,6-dioxopiperidin-3-yl)-5-(((1r,3r)-3-(4-(2-(4-((2-(oxetane-3-yloxy)pyrimidin-4-yl)methoxy)phenyl)isopropan-2-yl)phenoxy)cyclobutyl)amino) isoindolin-1,3-dione] |  |
| < 10 nM | 5 nM |  | CCC(CC)(c1ccc(Oc2cnc(-c3noc(C)n3)nc2)cc1)c1ccc(O[C@H]2C[C@H](Nc3ccc4c(c3)C(=O)N(C3CCC(=O)NC3=O)C4=O)C2)cc1 (some centres unmarked) [Example 380, 2-(2,6-dioxopiperidin-3-yl)-5-(((1r,3r)-3-(4-(3-(4-((2-(5-methyl-1,2,4-oxadiazol-3-yl)pyrimidin-5-yl)oxy)phenyl)pentan-3-yl)phenoxy)cyclobutyl)amino)isoindolin-1,3-dione] |  |
| < 10 nM | < 1 nM |  | Cc1nc(-c2ncc(Oc3ccc(C4(c5ccc(O[C@H]6C[C@H](Nc7ccc8c(c7)C(=O)N(C7CCC(=O)NC7=O)C8=O)C6)cc5)CCOCC4)cc3)cn2)no1 (some centres unmarked) [Example 382, 2-(2,6-dioxopiperidin-3-yl)-5-(((1r,3r)-3-(4-(4-(4-((2-(5-methyl-1,2,4-oxadiazol-3-yl)pyrimidin-5-yl)oxy)phenyl)tetrohydro-2H-pyran-4-yl)phenoxy)cyclobutyl)amino)isoindolin-1,3-dione] |  |
| < 10 nM | 10 nM |  | CNc1nccc(COc2ccc(C(C)(C)c3ccc(O[C@H]4C[C@H](Nc5ccc6c(c5)C(=O)N(C5CCC(=O)NC5=O)C6=O)C4)cc3)cc2)n1 (some centres unmarked) [Example 395] |  |
| < 10 nM |  | 23 nM | CC(C)(c1ccc(OCc2ccnc(N3CCOCC3)n2)cc1)c1ccc(OC2CC(Nc3ccc4c(c3)C(=O)N(C3CCC(=O)NC3=O)C4=O)C2)cc1 (centres unmarked) [Example 396, 2-(2,6-dioxopyridin-3-yl)-5-(1s,3s)-3-(4-(2-(4-(2-morpholinylpyrimidin-4-yl)methoxy)phenyl)propan-2-yl)phenoxy)cyclobutyl)amino)isoindol-1,3-dione] |  |
| < 10 nM | 13 nM |  | CC(C)(c1ccc(OCc2ccnc(N3CCC[C@@H](O)C3)n2)cc1)c1ccc(O[C@H]2C[C@@H](Nc3ccc4c(c3)C(=O)N(C3CCC(=O)NC3=O)C4=O)C2)cc1 (some centres unmarked) [Example 397] |  |
| < 10 nM |  | 9 nM | CC(C)(c1ccc(OCc2ccnc(N3CC[C@H](O)C3)n2)cc1)c1ccc(OC2CC(Nc3ccc4c(c3)C(=O)N(C3CCC(=O)NC3=O)C4=O)C2)cc1 (some centres unmarked) [Example 398] |  |
| < 10 nM | 16 nM |  | CC(C)(c1ccc(OCc2ccnc(N3CCC[C@H](O)C3)n2)cc1)c1ccc(O[C@H]2C[C@@H](Nc3ccc4c(c3)C(=O)N(C3CCC(=O)NC3=O)C4=O)C2)cc1 (some centres unmarked) [Example 399] |  |
| < 10 nM | 10 nM |  | CN(C)C1CN(c2nccc(COc3ccc(C(C)(C)c4ccc(O[C@H]5C[C@@H](Nc6ccc7c(c6)C(=O)N(C6CCC(=O)NC6=O)C7=O)C5)cc4)cc3)n2)C1 (some centres unmarked) [Example 400] |  |
| < 10 nM |  | 19 nM | CC(C)(c1ccc(OCc2ccnc(-n3ccnc3)n2)cc1)c1ccc(OC2CC(Nc3ccc4c(c3)C(=O)N(C3CCC(=O)NC3=O)C4=O)C2)cc1 (centres unmarked) [Example 405, 5-((1s,3s)-3-(4-(2-(2-(1H-imidazol-1-yl)pyrimidin-4-yl)methoxy)phenyl)propan-2-yl)phenoxy)cyclobutyl)amino)-2-(2,6-dioxopiperidin-3-yl)isoindol-1,3-dione] |  |
| < 10 nM | 6 nM |  | CC(C)(c1ccc(OCc2ccnc(N3CC(N4CCC4)C3)n2)cc1)c1ccc(O[C@H]2C[C@@H](Nc3ccc4c(c3)C(=O)N(C3CCC(=O)NC3=O)C4=O)C2)cc1 (some centres unmarked) [Example 410] |  |
| < 10 nM | 11 nM |  | CC(C)(c1ccc(OCc2cccc(N3CC4(COC4)C3)n2)cc1)c1ccc(O[C@H]2C[C@H](Nc3ccc4c(c3)C(=O)N(C3CCC(=O)NC3=O)C4=O)C2)cc1 (some centres unmarked) [Example 413] |  |
